{
  "source": "paper PMC6599521",
  "about": "(Biochemical pharmacology, 2019)",
  "key": {"murine HCN1 channels": {"target": "murine HCN1 channels (Mus musculus, UniProt O88704)", "sequence (O88704 whole entry)": "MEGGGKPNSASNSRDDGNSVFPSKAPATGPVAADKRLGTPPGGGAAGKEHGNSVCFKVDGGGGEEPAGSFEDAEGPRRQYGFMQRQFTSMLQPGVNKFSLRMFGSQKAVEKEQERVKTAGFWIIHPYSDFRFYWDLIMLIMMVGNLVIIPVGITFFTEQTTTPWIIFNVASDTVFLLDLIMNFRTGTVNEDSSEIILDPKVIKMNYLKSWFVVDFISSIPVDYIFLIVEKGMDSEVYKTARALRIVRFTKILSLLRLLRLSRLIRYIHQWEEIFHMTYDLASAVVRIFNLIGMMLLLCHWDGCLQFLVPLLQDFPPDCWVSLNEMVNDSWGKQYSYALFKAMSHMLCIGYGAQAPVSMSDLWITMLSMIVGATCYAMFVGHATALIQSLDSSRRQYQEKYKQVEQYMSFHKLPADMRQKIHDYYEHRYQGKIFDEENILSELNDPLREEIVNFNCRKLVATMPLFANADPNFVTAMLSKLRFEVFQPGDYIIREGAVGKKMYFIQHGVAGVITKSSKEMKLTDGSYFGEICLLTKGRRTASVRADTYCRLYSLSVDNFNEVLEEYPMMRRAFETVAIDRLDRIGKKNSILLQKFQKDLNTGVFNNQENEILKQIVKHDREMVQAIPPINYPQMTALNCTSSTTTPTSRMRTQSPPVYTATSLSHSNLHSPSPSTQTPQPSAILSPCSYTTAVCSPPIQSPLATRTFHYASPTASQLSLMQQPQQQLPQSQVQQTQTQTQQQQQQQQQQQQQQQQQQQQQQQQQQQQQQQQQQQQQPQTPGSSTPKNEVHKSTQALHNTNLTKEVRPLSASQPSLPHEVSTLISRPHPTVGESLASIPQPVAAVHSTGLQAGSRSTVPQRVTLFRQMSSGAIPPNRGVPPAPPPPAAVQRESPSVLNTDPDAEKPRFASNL", "type": "cell-based", "details": "for Inverse agonist behavior on HCN1 gating (in words): ligand alone; for IC50 (in words): no clear inflection in the concentration response curve, omitted from Figure 4B; for ΔV1/2: paired experiments"}, "HCN1 channels [1]": {"target": "T1, HCN1 channels (Mus musculus, UniProt O88704)", "T1 sequence (O88704 whole entry)": "as above", "assay": "Additivity/competition of ligands with 3 μM DTB-P on HCN1 gating", "type": "cell-based, murine", "details": "increasing ligand concentrations plus 3 μM DTB-P"}, "[2]": {"details": "cited from earlier work"}, "HCN1 channels [3]": {"target": "T1, HCN1 channels", "assay": "Gating model", "type": "cell-based, murine", "details": "for Fold Change of closed state association constant, phenol vs cyclohexanol / Fold Change of open state association constant, phenol vs cyclohexanol / Association constant to closed channels (KC, QC, JC) / Association constant to open channels (KO, QO, JO): common site model S=4; for Association constant to closed channels (KC, QC, JC) / Association constant to open channels (KO, QO, JO): constants and errors divided by 10^4"}, "[4]": {"tested_on": "mouse peripheral nerve injury neuropathic pain models", "details": "cited from earlier work"}, "[5]": {"tested_on": "G-protein coupled inwardly rectifying K+ channels (GIRKs)", "details": "in vitro; cited from earlier work"}, "[6]": {"tested_on": "chimeric mu opiate (μOR-Gqi5) receptors", "details": "up to 100 μM; cited from earlier work"}, "GABAA receptors": {"tested_on": "GABAA receptors", "details": "cited from earlier work"}, "α3β glycine receptors": {"tested_on": "α3β glycine receptors", "details": "cited from earlier work"}, "[7]": {"details": "Hill fit maximal shift of activation midpoint, mean ± SD"}},
  "note": "Where two headings read alike, the source gives them in different places.",
  "data": [
    {"smiles": "CCC1CCCC(CC)C1O", "note": "(stereo not drawn) [DE-CH, 2,6-di-ethyl cyclohexanol]", "values": [
      {"measurement": "IC50", "setting": "murine HCN1 channels", "result": "3000 ± 723", "unit": "µM"},
      {"measurement": "Inverse agonist behavior on HCN1 gating (in words)", "setting": "murine HCN1 channels", "result": "only weakly effective as an inverse agonist"},
      {"measurement": "IC50 (in words)", "setting": "murine HCN1 channels", "result": "ill-defined"},
      {"measurement": "Behavior in the presence of 3 μM DTB-P (in words)", "setting": "HCN1 channels [1]", "result": "neither additivity nor competition"}
    ]},
    {"smiles": "CCc1cccc(CC)c1O", "note": "[DE-P, 2,6-di-ethyl phenol]", "values": [
      {"measurement": "Maximal efficacy lower than the maximal effect of DIP-P and DTB-P", "setting": "murine HCN1 channels", "result": "~ 2 fold"},
      {"measurement": "ΔV1/2", "setting": "murine HCN1 channels; 100 μM, n = 8", "result": "−21.6", "unit": "mV"},
      {"measurement": "ΔV1/2", "setting": "murine HCN1 channels; 300 μM, n = 9", "result": "−21.2", "unit": "mV"},
      {"measurement": "ΔV1/2 max", "setting": "murine HCN1 channels; [7]", "result": "−22.1 ± 1.0", "unit": "mV"},
      {"measurement": "h (Hill coefficient)", "setting": "murine HCN1 channels; Hill fit, mean ± SD", "result": "1.95 ± 0.44"},
      {"measurement": "IC50", "setting": "murine HCN1 channels; IC50, Hill fit of ΔV1/2 vs concentration, all parameters free, mean ± SD", "result": "25.1 ± 2.7", "unit": "µM"},
      {"measurement": "Inverse agonist behavior on HCN1 gating (in words)", "setting": "murine HCN1 channels", "result": "partial inverse agonist"},
      {"measurement": "Aqueous solubility limit", "setting": "[2]; ref https://comptox.epa.gov/dashboard DTXSID5061401", "result": "~ 10 mM"}
    ]},
    {"smiles": "CCc1cccc(CC)c1N=C=O", "note": "[DE-PIC, 2,6-diethyl phenyl-isocyanate]", "values": [
      {"measurement": "Inverse agonist behavior on HCN1 gating (in words)", "setting": "murine HCN1 channels", "result": "effective"}
    ]},
    {"smiles": "CC(C)C1CCCC(C(C)C)C1O", "note": "(stereo not drawn) [DIP-CH, 2,6-di-iso-propyl cyclohexanol]", "values": [
      {"measurement": "IC50", "setting": "murine HCN1 channels", "result": "35 ± 21", "unit": "µM"},
      {"measurement": "ΔV1/2 max", "setting": "murine HCN1 channels; [7]", "result": "−18.9 ± 3.4", "unit": "mV"},
      {"measurement": "h (Hill coefficient)", "setting": "murine HCN1 channels; Hill fit, mean ± SD", "result": "0.76 ± 0.19"},
      {"measurement": "Fold Change of closed state association constant, phenol vs cyclohexanol", "setting": "HCN1 channels [3]", "result": 3.8},
      {"measurement": "Fold Change of open state association constant, phenol vs cyclohexanol", "setting": "HCN1 channels [3]", "result": 1.8},
      {"measurement": "Behavior in the presence of 3 μM DTB-P (in words)", "setting": "HCN1 channels [1]", "result": "partial inverse agonists"}
    ]},
    {"smiles": "CC(C)c1cccc(C(C)C)c1O", "note": "[DIP-P, 2,6-di-iso-propyl phenol, reference compound]", "values": [
      {"measurement": "Shift in the V1/2 of HCN1 gating", "setting": "murine HCN1 channels", "result": "~ −40 mV"},
      {"measurement": "h (Hill coefficient)", "setting": "murine HCN1 channels", "result": "0.85 ± 0.11"},
      {"measurement": "ΔV1/2 max", "setting": "murine HCN1 channels", "result": "−39.8 ± 2.3", "unit": "mV"},
      {"measurement": "IC50", "setting": "murine HCN1 channels; IC50", "result": "5.8 ± 1.2", "unit": "µM"},
      {"measurement": "Behavior in the presence of 3 μM DTB-P (in words)", "setting": "HCN1 channels [1]", "result": "second full inverse"},
      {"measurement": "Increase of solubility by 2-hydroxypropyl-β-cyclodextrin (HPβCD)", "setting": "[2]", "result": "≥ 200", "unit": "fold"},
      {"measurement": "Anti-hyperalgesia", "setting": "[4]", "result": "mechanical and thermal anti-hyperalgesia"},
      {"measurement": "Direct effect on GIRKs", "setting": "[5]", "result": "no direct effect"},
      {"measurement": "Effect on DAMGO-evoked currents generated by μOR-Gqi5 receptors", "setting": "[6]", "result": "inhibit"}
    ]},
    {"smiles": "CC(C)c1cccc(C(C)C)c1F", "note": "[DIP-PF, 2,6-di-iso-propyl phenyl-fluorine]", "values": [
      {"measurement": "IC50", "setting": "murine HCN1 channels", "result": "267 ± 24", "unit": "µM"},
      {"measurement": "Destabilization of association on replacing OH with F", "setting": "murine HCN1 channels; from observed IC50 ratio", "result": 2.3, "unit": "kcal/mol"},
      {"measurement": "Destabilization of association on replacing OH with F", "setting": "murine HCN1 channels; from partition-corrected IC50 ratio", "result": 4.5, "unit": "kcal/mol"},
      {"measurement": "Shift in IC50 on replacing OH with F", "setting": "murine HCN1 channels; ratio of observed aqueous IC50s of DIP-P and DIP-PF", "result": 46, "unit": "fold"},
      {"measurement": "Shift in IC50 on replacing OH with F", "setting": "murine HCN1 channels; ratio of partition-corrected IC50s of DIP-P and DIP-PF", "result": "1,870 fold"}
    ]},
    {"smiles": "CC1CCCC(C)C1O", "note": "(stereo not drawn) [DM-CH, 2,6-di-methyl cyclohexanol]", "values": [
      {"measurement": "IC50 (in words)", "setting": "murine HCN1 channels", "result": "ill-defined"}
    ]},
    {"smiles": "Cc1cccc(C)c1O", "note": "[DM-P, 2,6-di-methyl phenol]", "values": [
      {"measurement": "Inverse agonist behavior on HCN1 gating (in words)", "setting": "murine HCN1 channels", "result": "ineffective"},
      {"measurement": "IC50 (in words)", "setting": "murine HCN1 channels", "result": "ill-defined"}
    ]},
    {"smiles": "Cc1cccc(C)c1N=C=O", "note": "[DM-PIC, 2,6-di-methyl phenyl-isocyanate]", "values": [
      {"measurement": "Inverse agonist behavior on HCN1 gating (in words)", "setting": "murine HCN1 channels", "result": "ineffective"},
      {"measurement": "IC50 (in words)", "setting": "murine HCN1 channels", "result": "ill-defined"}
    ]},
    {"smiles": "Cc1cccc(C)c1S", "note": "[DM-PT, 2,6-di-methyl phenyl-thiol]", "values": [
      {"measurement": "Inverse agonist behavior on HCN1 gating (in words)", "setting": "murine HCN1 channels", "result": "clear inverse agonist activity"}
    ]},
    {"smiles": "CCC(C)C1CCCC(C(C)CC)C1O", "note": "(stereo not drawn) [DSB-CH, 2,6-di-sec-butyl cyclohexanol]", "values": [
      {"measurement": "IC50 (in words)", "setting": "murine HCN1 channels", "result": "ill-defined"},
      {"measurement": "Association constant to closed channels (KC, QC, JC)", "setting": "HCN1 channels [3]", "result": "no effect"},
      {"measurement": "Association constant to open channels (KO, QO, JO)", "setting": "HCN1 channels [3]", "result": "no effect"}
    ]},
    {"smiles": "CCC(C)c1cccc(C(C)CC)c1O", "note": "(stereo not drawn) [DSB-P, 2,6-di-sec-butyl phenol]", "values": [
      {"measurement": "Jc^I closed state association constant", "setting": "HCN1 channels [3]; common site model S=4, fit of data without and with 3 μM DTB-P, not scaled", "result": "3,696 ± 2,948"},
      {"measurement": "Behavior in the presence of 3 μM DTB-P (in words)", "setting": "HCN1 channels [1]", "result": "low affinity full inverse agonist"}
    ]},
    {"smiles": "CC(C)(C)C1CCCC(C(C)(C)C)C1O", "note": "(stereo not drawn) [DTB-CH, 2,6-di-tert-butyl cycloxhexanol]", "values": [
      {"measurement": "ΔV1/2 max", "setting": "murine HCN1 channels; [7]", "result": "−9.9 ± 1.5", "unit": "mV"},
      {"measurement": "IC50", "setting": "murine HCN1 channels; Hill fit of ΔV1/2 vs concentration, all parameters free, mean ± SD", "result": "11.4 ± 4.2", "unit": "µM"},
      {"measurement": "h (Hill coefficient)", "setting": "murine HCN1 channels; Hill fit, mean ± SD", "result": "1.28 ± 0.47"},
      {"measurement": "Fold Change of closed state association constant, phenol vs cyclohexanol", "setting": "HCN1 channels [3]", "result": 5.4},
      {"measurement": "Fold Change of open state association constant, phenol vs cyclohexanol", "setting": "HCN1 channels [3]", "result": 1.8},
      {"measurement": "Association constant to closed channels (KC, QC, JC)", "setting": "HCN1 channels [3]", "result": "4.6 ± 2.0"},
      {"measurement": "Association constant to open channels (KO, QO, JO)", "setting": "HCN1 channels [3]", "result": "3.1 ± 1.5"},
      {"measurement": "Behavior in the presence of 3 μM DTB-P (in words)", "setting": "HCN1 channels [1]", "result": "partial inverse agonists"}
    ]},
    {"smiles": "CC(C)(C)c1cccc(C(C)(C)C)c1O", "note": "[DTB-P, 2,6-di-tert-butyl phenol]", "values": [
      {"measurement": "IC50", "setting": "murine HCN1 channels", "result": "4.8 ± 0.8", "unit": "µM"},
      {"measurement": "ΔV1/2 max", "setting": "murine HCN1 channels; [7]", "result": "−42.4 ± 2.8", "unit": "mV"},
      {"measurement": "h (Hill coefficient)", "setting": "murine HCN1 channels; Hill fit, mean ± SD", "result": "0.97 ± 0.13"},
      {"measurement": "Shift in the V1/2 of HCN1 gating", "setting": "murine HCN1 channels; at the highest concentrations", "result": "~ −40 mV"},
      {"measurement": "Increase of solubility by 2-hydroxypropyl-β-cyclodextrin (HPβCD)", "setting": "[2]", "result": "≥ 200", "unit": "fold"},
      {"measurement": "Anti-hyperalgesia", "setting": "[4]", "result": "mechanical and thermal anti-hyperalgesia"},
      {"measurement": "Activity at GABAA receptors", "setting": "GABAA receptors", "result": "minimal activity"},
      {"measurement": "Effect on open channel probability (Po) of α3β glycine receptors", "setting": "α3β glycine receptors", "result": "increases open channel probability"}
    ]}
  ]
}
